The source made the active and inactive calls. No cut-off for these calls is given here.
Tests used:
Type in all cases: functional
EC9706 [1] = assay: (§1) Cytotoxicity against human Ec9706 cells at 100 uM after 48 hrs by MTT assay
A549 [2] = assay: Cytotoxicity against human A549 cells at 100 uM after 48 hrs by MTT assay; settings: for inhibition at 100 µM: A549, 48 h
EC9706 [3] = assay: (§2) Cytotoxicity against human Ec9706 cells at 50 uM after 48 hrs by MTT assay
A549 [4] = assay: Cytotoxicity against human A549 cells at 50 uM after 48 hrs by MTT assay; settings: for inhibition at 50 µM: A549, 48 h
[5] = (§3) Cytotoxicity against human Ec9706 cells at 400 uM after 48 hrs by MTT assay; settings: EC9706, 48 h
[6] = as §1; settings: EC9706, 48 h
[7] = as §2; settings: EC9706, 48 h
[8] = (§4) Cytotoxicity against human Ec9706 cells at 200 uM after 48 hrs by MTT assay; settings: EC9706, 48 h
A549 [9] = assay: Cytotoxicity against human A549 cells at 400 uM after 48 hrs by MTT assay; settings: for inhibition at 400 µM: A549, 48 h
A549 [10] = assay: Cytotoxicity against human A549 cells at 200 uM after 48 hrs by MTT assay; settings: for inhibition at 200 µM: A549, 48 h
EC9706 [11] = assay: as §3
EC9706 [12] = assay: as §4

Row | SMILES | Activity (EC9706 [1]) | Activity (A549 [2]) | Activity (EC9706 [3]) | Activity (A549 [4]) | inhibition at 400 µM [5] | inhibition at 100 µM [6] | inhibition at 100 µM (A549 [2]) | inhibition at 50 µM [7] | inhibition at 200 µM [8] | inhibition at 400 µM (A549 [9]) | inhibition at 50 µM (A549 [4]) | inhibition at 200 µM (A549 [10]) | Activity (EC9706 [11]) | Activity (EC9706 [12]) | Activity (A549 [9]) | Activity (A549 [10])
1 | CCCCCCCCCCCCCCCCCC(=O)OCCn1c(=O)c(F)cn([C@H]2CCCO2)c1=O | inactive | inactive | inactive | inactive | – | – | – | – | – | – | – | – | – | – | – | –
2 | CCCCC/C=C\C/C=C\C/C=C\C/C=C\CCCC(=O)OCCn1c(=O)c(F)cn([C@H]2CCCO2)c1=O | – | – | – | – | 69.9% | 30.8% | 33.8% | 19.3% | 59.9% | 92.1% | 1.6% | 78.2% | – | – | – | –
3 | CCCCC/C=C\C/C=C\CCCCCCCC(=O)OCCn1c(=O)c(F)cn([C@H]2CCCO2)c1=O | – | – | inactive | – | 54.4% | 14.4% | 11% | – | 31.9% | 90.7% | 1.8% | 24.7% | – | – | – | –
4 | CCCCCCCC/C=C\CCCCCCCC(=O)OCCn1c(=O)c(F)cn([C@H]2CCCO2)c1=O | – | – | – | – | – | 4.9% | 4.8% | 3.7% | – | – | 2.5% | – | – | – | – | –
5 | O=c1c(F)cn([C@H]2CCCO2)c(=O)n1CCO | inactive | inactive | – | – | – | – | – | – | – | – | – | – | inactive | inactive | inactive | inactive
6 | CCCCCCCCCCCC(=O)OCCn1c(=O)c(F)cn([C@H]2CCCO2)c1=O | inactive | inactive | inactive | inactive | – | – | – | – | – | – | – | – | – | – | – | –
7 | O=c1[nH]c(=O)n(C2CCCO2)cc1F (stereo not given) [TEGAFUR] | inactive | – | – | – | 17.4% | – | 12.7% | – | 7.8% | 17.8% | – | 15.2% | – | – | – | –
